Experiment: Plasma and brain levels of the components by LC-MS/MS after 10 days of HFD containing the exemplary composition
Text: In all studies described below, animals on the test diet received either a high fat diet (HFD) or a low-fat diet (LFD) ad libitum, with the diet further containing the components listed in Table 5.
Adult female wild-type C57/BL6 (Envigo) were used for the experiments. The animals were group housed in plastic cages (3-5 animals/cage) and had access to food and water ad libitum. Experiments were approved by the Institutional Animal Care and Use Committee of Brains On-Line LLC, South San Francisco, CA.
Mice were fed a HFD containing a composition comprising nicotinic acid, berberine, silibinin, lipoic acid and taurine (see Table 5) for 10 days. Subjects were euthanized, and plasma and brain samples were collected after 10 days feeding with a HFD containing the composition. The blood was collected into a vial already containing EDTA anticoagulant. The blood was centrifuged at 2500×g at 4° C. for 10 minutes. Supernatants were stored as plasma samples at −80° C. Immediately following blood collection, whole brains were rapidly extracted, placed into a pre-weighed tube, and weighed. Samples were snap frozen with liquid nitrogen.
Levels of nicotinic acid, berberine, silibinin (active form of Siliphos®), lipoic acid and taurine were quantified in plasma and brain samples by LC-MS/MS.

[1] = female, C57/BL6, mouse, in vivo
[2] = female, C57/BL6, mouse, in vivo, 10 days

For `COc1ccc2cc3[n+](cc2c1OC)CCc1cc2c(cc1-3)OCO2` [Berberine], the “Cumulative Brain” value (brain after 10 days administration in HFD, mice) was 265 pmol/g and the concentration at 10 days [1] was 20.5 nM.
In the case of `O=C(O)CCCCC1CCSS1` (stereo not drawn) [Lipoic acid], the “Basal Plasma” value (basal plasma level, mice, LC-MS/MS) is reported as “<LLOQ”, the concentration at 10 days [1] is reported as 68.2 nM and the “Cumulative Brain” value [2] is reported as 21 pmol/g. For the same compound, the “Basal Brain” value (mouse, in vivo) was “<LLOQ”.
With `O=C(O)c1cccnc1` [Nicotinic acid] the “Basal Brain” value [1] was 9.4 nmol/g, the concentration at 10 days [1] was 1360 nM and the “Cumulative Brain” value [2] was 12600 pmol/g. The “Basal Plasma” value (mouse, in vivo) was “<LLOQ”.
With `COc1cc(C2Oc3cc([C@H]4Oc5cc(O)cc(O)c5C(=O)[C@@H]4O)ccc3OC2CO)ccc1O` (stereo partly drawn) [Silibinin] the “Cumulative Brain” value [2] was 12.9 pmol/g and the “Cumulative Plasma” value [2] was 21 nM.

Reference: patent US12201624B2, “Compositions comprising mixtures of compounds and uses thereof” (Prostasis, LLC, priority 2021, dated 2025)
